Results: the supplement of paper PMC10307832

How the values were obtained:
Experiment in all cases: relative viability (nuclei count vs DMSO), 5 days (fraction); higher = more cells survive
[1] = compound: Nc1nc(Nc2ccc3c(c2)CC[C@@H](N2CCCC2)CC3)nn1-c1cc2c(nn1)-c1ccccc1CCC2 [Bemcentinib] + CC(=O)c1c(C)c2cnc(Nc3ccc(N4CCNCC4)cn3)nc2n(C2CCCC2)c1=O [Palbociclib] (partner 0.5 µM)
Summary of the method: (§1)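 Lung cancer cell lines in 1536-well plates got either a single drug or a fixed anchor-drug dose together with five library-drug doses (not always all listed) in √10 steps, by pin tool, on the day after seeding. Nuclei were counted after 5 days, and relative viability is the treated-to-vehicle ratio of nuclei counts. Values are medians of duplicate plates.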

[2] = compound: CC1=CC=C(C=C1)C(=O)CN2C3=C(CCCC3)SC2=N [Pifithrin_alpha] + CC1(C)CCC(c2ccc(Cl)cc2)=C(CN2CCN(c3ccc(C(=O)NS(=O)(=O)c4ccc(N[C@H](CCN5CCOCC5)CSc5ccccc5)c(S(=O)(=O)C(F)(F)F)c4)cc3)CC2)C1 [Navitoclax] (partner 0.5 µM)
Summary of the method: as §1

Axitinib + Palbociclib = compound: CNC(=O)c1ccccc1Sc1ccc2c(/C=C/c3ccccn3)n[nH]c2c1 [Axitinib] + CC(=O)c1c(C)c2cnc(Nc3ccc(N4CCNCC4)cn3)nc2n(C2CCCC2)c1=O [Palbociclib] (partner 0.5 µM)
Summary of the method: as §1

[3] = compound: CC1=CC=C(C=C1)C(=O)CN2C3=C(CCCC3)SC2=N [Pifithrin_alpha] + NC(=O)Nc1cc(-c2cccc(F)c2)sc1C(=O)N[C@H]1CCCNC1 [AZD7762] (partner 0.2 µM)
Summary of the method: as §1

| Cell Line | relative viability ([1]; first compound 0.04 µM) | relative viability ([1]; first compound 0.1265 µM) | relative viability ([1]; first compound 0.4 µM) | relative viability ([1]; first compound 1.265 µM) | relative viability ([1]; first compound 4 µM) | relative viability ([2]; first compound 1 µM) | relative viability ([2]; first compound 3.162 µM) | relative viability ([2]; first compound 10 µM) | relative viability ([2]; first compound 31.62 µM) | relative viability ([2]; first compound 100 µM) | relative viability (Axitinib + Palbociclib; first compound 0.005 µM) | relative viability (Axitinib + Palbociclib; first compound 0.01581 µM) | relative viability (Axitinib + Palbociclib; first compound 0.05 µM) | relative viability (Axitinib + Palbociclib; first compound 0.1581 µM) | relative viability (Axitinib + Palbociclib; first compound 0.5 µM) | relative viability ([3]; first compound 1 µM) | relative viability ([3]; first compound 3.162 µM) | relative viability ([3]; first compound 10 µM) | relative viability ([3]; first compound 31.62 µM) | relative viability ([3]; first compound 100 µM) |
| --- | --- | --- | --- | --- | --- | --- | --- | --- | --- | --- | --- | --- | --- | --- | --- | --- | --- | --- | --- | --- |
| SW 1573 | 0.395 | 0.407 | 0.416 | 0.391 | 0.364 | 1.06 | 1.03 | 1.18 | 0.923 | 0.893 | 0.36 | 0.448 | 0.395 | 0.384 | 0.473 | – | – | – | – | – |
| COR-L 105 | 0.385 | 0.381 | 0.412 | 0.377 | 0.396 | 0.65 | 0.663 | 0.722 | 0.63 | 0.626 | 0.456 | 0.434 | 0.38 | 0.438 | 0.37 | – | – | – | – | – |
| COR-L23 | 0.304 | 0.316 | 0.275 | 0.382 | 0.31 | 1.09 | 1.09 | 0.974 | – | 1.19 | 0.322 | 0.297 | 0.323 | 0.303 | 0.331 | – | – | – | – | – |
| NCI-H322M | 0.49 | 0.481 | 0.483 | 0.537 | 0.557 | 1.17 | 1.35 | 1.27 | 1.22 | 1.33 | 0.454 | 0.442 | 0.491 | 0.427 | 0.514 | 0.413 | 0.462 | 0.48 | 0.498 | 0.487 |
| NCI-H2347 | 0.438 | 0.467 | 0.385 | 0.443 | 0.443 | 0.695 | 0.87 | 0.786 | 0.551 | 0.814 | 0.42 | 0.411 | 0.436 | 0.434 | 0.362 | 0.84 | 0.733 | 0.738 | 0.756 | 0.86 |
| RERF-LC-KJ | 0.964 | 1.07 | 1.05 | 1.24 | 1.18 | 0.591 | 0.619 | 0.5 | 0.824 | 0.412 | 1.09 | 1.16 | 1.03 | 1.14 | 1.11 | 0.628 | 0.882 | 0.941 | 0.981 | 0.854 |
| NCI-H2228 | 0.268 | 0.827 | 0.844 | 0.836 | 0.997 | 0.88 | 0.839 | 0.804 | 0.599 | 0.729 | 0.926 | 0.664 | 0.615 | 0.614 | 0.882 | – | – | – | – | – |
| A549 | – | – | – | – | – | 1.37 | 1.26 | 1.14 | 0.985 | 1.29 | – | – | – | – | – | – | – | – | – | – |
| NCI-H358 | 0.135 | 0.143 | 0.143 | 0.137 | 0.135 | – | – | – | – | – | 0.17 | 0.159 | 0.143 | 0.129 | 0.13 | 0.582 | 0.489 | 0.496 | 0.427 | 0.413 |
| NCI-H2342 | 0.605 | 0.614 | 0.562 | 0.575 | 0.529 | – | – | – | – | – | 0.503 | 0.524 | 0.536 | 0.614 | 0.485 | 0.421 | 0.541 | 0.51 | 0.525 | 0.492 |
